Measurements as given in US9642361B2, “Method for changing the development pattern, increasing the growth and the accumulation of starch, changing the structure of starch and increasing the resistance to water stress in plants” (IDEN BIOTECHNOLOGY, S.L., priority 2010, dated 2017).

Columns and labels:
[1] = test system: Arabidopsis thaliana plants; assay: Starch content in leaves of Arabidopsis plants cultured next to solutions of volatile compounds; assay type: in vivo; conditions: for starch accumulation in leaves: 2 cubic centimeters of 5% aqueous solution in 500 cubic centimeter box, two days
Method: To that end, the plants were cultured in Petri dishes containing solid MS medium with 90 mM sucrose. The plants germinated and were grown for two weeks in growth chambers with a photoperiod of 16 h of light (300 μmol of photons s^−1 m^−2) and at a constant temperature of 24° C.
The Petri dishes containing completely developed plants were placed in 500 cubic centimeter grow boxes with the particularity that, instead of microbial cultures, […] were introduced in said boxes in each case: indol, DTT (dithiothreitol), NAA (1-naphthaleneacetic acid), β-mercaptoethanol, salicylic acid, jasmonic acid, cysteine, acetoin, ethanol, methanol, β-hydroxybutyrate, butanediol, propanoic acid, acetic acid, acetaldehyde, formic acid or butyric acid, without there being any physical contact between the plant and the solution. The ethylene was provided in the form of ethephon powders. The boxes were sealed and leaves were harvested after two days of incubation to analyze starch content. Leaves were harvested at the end of the light period. As a negative control, the Petri dishes containing completely developed plants were cultured for two days in sealed plastic boxes together with a Petri dish containing 2 cubic centimeters of water in the absence of any of the volatile compounds assayed.
Starch was measured using an amyloglucosidase-based test kit (Boehringer Mannheim, Germany).

detached potato leaves = assay: Starch content in detached potato leaves with added amino acids, with or without FVs; assay type: in vivo, Solanum tuberosum; conditions: exogenously added amino acid, +FV, 2 days
Method: FIG. 19: Graph depicting the starch content (expressed as μmoles of glucose per gram of fresh weight) measured in potato plants cultured for 2 days in MS supplemented with 90 mM sucrose and the indicated concentrations of cysteine, glycine, serine and methionine in the absence (−FV) or in the presence (+FV) of volatiles emitted by A. alternata grown in solid MS medium supplemented with 90 mM sucrose.
Therefore, it was investigated whether plastidial cysteine provision impairments are directly involved in MIVOISAP by measuring the starch content in detached potato leaves cultured in the presence and in the absence of FVs emitted by Alternaria alternata, and in the presence of different concentrations of cysteine.

[2] = test system: leaves cut from Arabidopsis; assay: Starch accumulation in cut Arabidopsis leaves with transcription/translation inhibitors in presence of fungal volatiles; assay type: in vivo, Arabidopsis thaliana; conditions: 50 μM cycloheximide or 200 μM cordycepin; after 2 hours of incubation
Method: The experiment of section 5.1 was repeated, using in this case leaves cut from Arabidopsis incubated in Petri dishes with solid MS medium supplemented with 90 mM sucrose and, where appropriate, with 50 micromoles (μM) of translation inhibitor cycloheximide (Sigma) and 200 micromoles (μM) of transcription inhibitor cordycepin (Sigma) (Fritz, C. C. et al., 1991: Proc. Natl. Acad. Sci. USA 88: 4458-4462; Hayashi, T. and Takagi, S., 2003; Plant Cell Physiol. 44: 1027-1036; Dhonukshe et al., 2006: Developmental Cell 10: 137-150). The dishes were deposited in 500 cubic centimeter boxes in which cultures of Alternaria alternata had previously been deposited.

| Compound | starch accumulation in leaves [1] | further results |
| --- | --- | --- |
| CC=O [acetaldehyde] | promote starch overaccumulation | – |
| N[C@@H](CS)C(=O)O [cysteine] | – | MIVOISAP (starch content) in detached leaves (detached potato leaves): strongly suppressed |
| Nc1ncnc2c1ncn2[C@@H]1O[C@H](CO)C[C@H]1O [cordycepin] | – | starch accumulation in presence of fungal volatiles [2]: strongly inhibit starch accumulation |
| C[C@@H]1C[C@@H]([C@H](O)CC2CC(=O)NC(=O)C2)C(=O)[C@@H](C)C1 [cycloheximide] | – | starch accumulation in presence of fungal volatiles [2]: strongly inhibit starch accumulation |
| O=CO [formic acid] | promote starch overaccumulation | dose dependence of the effect on starch accumulation ([1]; solutions at 1%, 2% or 5% (v/v)): dose-dependent |
| CC(=O)O [acetic acid] | promote starch overaccumulation | – |
| CCC(=O)O [propanoic acid] | promote starch overaccumulation | – |
| CCCC(=O)O [butyric acid] | promote starch overaccumulation | – |
